According to PubChem BioAssay (NCI):
Where “and” joins values, the source holds several entries; their conditions need not be identical. Identical values can stand only once.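 These data come from cells grown in 96-well plates and exposed to compound for 48 hours at five concentrations. GI50: concentration for 50% inhibition of growth. TGI: total growth inhibition.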

Columns and labels:
Assay in all cases: NCI tumour cell line growth inhibition, 48 h
NCI-H522 lung = system: NCI-H522 lung
HS 578T breast = system: HS 578T breast
SNB-75 CNS = system: SNB-75 CNS
M14 melanoma = system: M14 melanoma
IGROV1 ovarian = system: IGROV1 ovarian
A549 NSCLC = system: A549 NSCLC
SK-MEL-5 melanoma = system: SK-MEL-5 melanoma
U251 CNS = system: U251 CNS
RXF 393 renal = system: RXF 393 renal
UO-31 renal = system: UO-31 renal

Compound	GI50 (NCI-H522 lung)	TGI (NCI-H522 lung)	GI50 (HS 578T breast) [µM]	TGI (HS 578T breast) [µM]	GI50 (SNB-75 CNS)	TGI (SNB-75 CNS)	GI50 (M14 melanoma)	TGI (M14 melanoma)	GI50 (IGROV1 ovarian)	TGI (IGROV1 ovarian)	GI50 (A549 NSCLC)	TGI (A549 NSCLC)	GI50 (SK-MEL-5 melanoma)	TGI (SK-MEL-5 melanoma)	GI50 (U251 CNS)	TGI (U251 CNS)	GI50 (RXF 393 renal)	TGI (RXF 393 renal)	GI50 (UO-31 renal)	TGI (UO-31 renal)
COc1ccc2[nH]cc(Cc3c[nH]c4ccc(OC)cc34)c2c1	25.5 µM	77.3 µM	15.6	49.6	13.7 µM	50.6 µM	20.3 µM	44 µM	15.4 µM	33.1 µM	19.1 µM	46.9 µM	16.5 µM	30.1 µM	15.9 µM	29.4 µM	28 µM	54.7 µM	27.5 µM	> 100 µM
CN(C)c1ccc(/C=N/n2c(CCCCc3n[nH]c(=S)n3/N=C/c3ccc(N(C)C)cc3)n[nH]c2=S)cc1	> 100 µM	> 100 µM	73.8	> 100	30.2 µM	> 100 µM	> 100 µM	> 100 µM	> 100 µM	> 100 µM	> 100 µM	> 100 µM	> 100 µM	> 100 µM	74 µM	> 100 µM	> 100 µM	> 100 µM	> 100 µM	> 100 µM
O=C1c2c(c3c4ccccc4n(CCCCCCN4CCOCC4)c3c3[nH]c4ccccc4c23)C(=O)N1O	1.58 µM	4.15 µM	2.07	6.61	1.36 µM	7.57 µM	4.02 µM	30.7 µM	3.76 µM	49.3 µM	39.8 µM	> 100 µM	4.22 µM	20 µM	1.68 µM	3.22 µM	7.61 µM	25.9 µM	1.25 µM	3.11 µM
Cc1ccc2c(c1)C(=O)/C(=C/c1cccc(OCC(=O)c3ccc(Cl)cc3)c1)CS2	3.94 µM	18.2 µM	1.54	4.42	6.39 µM	44.9 µM	4.07 µM	27.4 µM	5.65 µM	20.4 µM	33.4 µM	> 100 µM	6.95 µM	19.6 µM	3.14 µM	13.6 µM	16.8 µM	34.8 µM	2.93 µM	18.3 µM
O=c1oc2ccc(I)cc2c(=O)n1-c1ccc(I)cc1F	0.327 µM	4.52 µM	0.324	4.78	0.32 µM	2.57 µM	0.545 µM	5.87 µM	0.406 µM	20.8 µM	3 µM	> 51.8 µM	0.258 µM	0.747 µM	0.612 µM	> 45.3 µM	0.861 µM	4.16 µM	0.268 µM	2.41 µM
C#Cc1cccc(Nc2ncnc3ccc(-c4cnc(N)nc4)cc23)c1	2.11 µM	11.8 µM	1.23	4.06	0.643 µM	3.96 µM	3.73 µM	15.7 µM	0.183 µM	2.26 µM	2.02 µM	14.4 µM	3.34 µM	12.5 µM	3.18 µM	16.9 µM	0.693 µM	3.44 µM	0.515 µM	7.75 µM
O=C(CS(=O)c1nc2ccccc2nc1-c1ccccc1)Nc1ccc(Cl)cc1 (stereo not drawn)	18.6 µM	60.1 µM	–	6.88	> 100 µM	> 100 µM	28.4 µM	> 100 µM	31.2 µM	99.5 µM	32.3 µM	> 100 µM	15.2 µM	30.8 µM	21.8 µM	61.6 µM	30.4 µM	84.3 µM	25 µM	> 100 µM
CC[C@H](C)C(=O)O[C@H]1CCC=C2C=C[C@H](C)[C@H](CC[C@@H]3C[C@@H](O)CC(=O)O3)[C@H]21	2.41 µM	39.6 µM	4.56	> 100	1.37 µM	4.68 µM	8.97 µM	> 100 µM	5 µM	> 100 µM	11.7 µM	> 100 µM	3.39 µM	13.6 µM	1.13 µM	> 100 µM	3.32 µM	16.6 µM	5.29 µM	> 100 µM
COC(=O)c1cc2c([nH]c3ccccc32)c(-c2nc3ccccc3cc2CO)n1	73 µM	> 100 µM	> 100	> 100	40.1 µM	> 100 µM	> 100 µM	> 100 µM	> 100 µM	> 100 µM	> 100 µM	> 100 µM	50.3 µM	> 100 µM	7.1 µM	> 100 µM	21.6 µM	> 100 µM	> 100 µM	> 100 µM
Cc1cc2oc(=O)cc(OC/C=C3/CCC(=O)O3)c2cc1C	1.4 µM	2.97 µM	4.76	43.7	1.97 µM	9.61 µM	2.18 µM	4.87 µM	3.33 µM	14.6 µM	13.4 µM	27.1 µM	12.4 µM	26.3 µM	3.42 µM	15.1 µM	1.83 µM	9.81 µM	1.49 µM	4.88 µM
C=C1C(=O)O[C@H]2C3OC3(C)CC/C=C(/C(=O)OC)[C@@H](OC(C)=O)[C@H](OC(=O)C3(C)OC3C)[C@H]12 (stereo partly drawn)	0.0891 µM and 0.122 µM	0.242 µM and 0.241 µM	–	24.4	5.54 µM and 11.2 µM and 2.27 µg/mL	21.8 µM and 4.68 µg/mL	1.5 µM and 850 nM and 0.499 µg/mL	3.13 µM and 2.4 µM and 1.29 µg/mL	1.47 µM and 3.2 µM and 2.29 µg/mL	3.17 µM and 14.6 µM and 5.62 µg/mL	9.7 µM and 12.5 µM and 5.5 µg/mL	31.6 µM and 17.5 µg/mL	1.88 µM and 1.91 µM and 2.6 µg/mL	3.87 µM and 7.72 µM and 9.58 µg/mL	3.73 µM and 5.25 µg/mL	12.7 µM and 14.9 µg/mL	364 nM and 190 nM and 0.407 µg/mL	838 nM and 531 nM and 0.951 µg/mL	2.29 µM and 2.04 µM and 2.66 µg/mL	6.69 µM and 9.13 µM and 5.8 µg/mL
